Usually IC50 stands for the midpoint of a concentration-inhibition curve. The low end stands for greater potency, the high end for weaker potency.

These results are taken from patent US20260200928A1, “THERAPEUTIC COMPOUNDS” (Sanofi, priority 2022, published 2026).

This assay addresses T1, human IL-17A (Homo sapiens, UniProt Q16552).
T1 construct: purchased R&D Systems 7955-IL/CF
T1 sequence (Q16552 24-155): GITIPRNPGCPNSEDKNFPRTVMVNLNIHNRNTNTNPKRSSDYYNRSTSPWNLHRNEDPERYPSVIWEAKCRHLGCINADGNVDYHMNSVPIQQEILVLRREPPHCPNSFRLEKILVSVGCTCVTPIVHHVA
Kind of assay: IL-17A AlphaLISA competition assay (block of IL-17A binding to its receptor IL-17RA). Particulars: mean IC50 (n≥2), block of IL-17A binding to IL-17RA. The gist of the method:
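Human recombinant IL-17A (7.5 nM stock) pre-incubated 30 min at RT with compound, then IL-17RA/Fc (5 nM stock) added for 90 min; AlphaLISA read with anti-Fc acceptor beads, biotinylated anti-IL-17A antibody (5 nM) and streptavidin donor beads (3 h, dark). IC50 from 4-parameter logistic fit, normalised to DMSO and 4 μM reference inhibitor; n≥2.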
Background: Alpha assays give light when donor and acceptor beads are brought close together.
As to `CCc1nocc1C(=O)N[C@H](C(=O)Nc1cc(C(C)(C)N2C[C@@H](C(F)(F)F)NC2=O)ccn1)C1CCC(F)(F)CC1` [Example 173, N-((S)-1-(4,4-difluorocyclohexyl)-2-oxo-2-((4-(2-((S)-2-oxo-4-(trifluoromethyl)imidazolidin-1-yl)propan-2-yl)pyridin-2-yl)amino)ethyl)-3-ethylisoxazole-4-carboxamide], the half-inhibitory concentration (IC50) came out at 187 nM. The same measure for `CCn1nccc1C(=O)N[C@H](C(=O)Nc1cc(C(C)(C)N2C[C@@H](C(F)(F)F)NC2=O)ccn1)C1CCC(F)(F)CC1` [Example 174, N-((S)-1-(4,4-difluorocyclohexyl)-2-oxo-2-((4-(2-((S)-2-oxo-4-(trifluoromethyl)imidazolidin-1-yl)propan-2-yl)pyridin-2-yl)amino)ethyl)-1-ethyl-1H-pyrazole-5-carboxamide]: 362 nM; for `CCc1conc1C(=O)N[C@H](C(=O)Nc1cc([C@@H](COC)N2CC(F)(F)CNC2=O)ccn1)C1CCC(F)(F)CC1` [Example 177, N-((S)-2-((4-((S)-1-(5,5-difluoro-2-oxotetrahydropyrimidin-1(2H)-yl)-2-methoxyethyl)pyridin-2-yl)amino)-1-(4,4-difluorocyclohexyl)-2-oxoethyl)-4-ethylisoxazole-3-carboxamide]: 24 nM. For the compound `CCc1nocc1C(=O)N[C@H](C(=O)Nc1cc([C@@H](COC)N2CC(F)(F)CNC2=O)ccn1)C1CCC(F)(F)CC1` [Example 178, N-((S)-2-((4-((S)-1-(5,5-difluoro-2-oxotetrahydropyrimidin-1(2H)-yl)-2-methoxyethyl)pyridin-2-yl)amino)-1-(4,4-difluorocyclohexyl)-2-oxoethyl)-3-ethylisoxazole-4-carboxamide], the half-inhibitory concentration (IC50) stood at 53 nM. `CCn1nccc1C(=O)N[C@H](C(=O)Nc1cc([C@@H](COC)N2CC(F)(F)CNC2=O)ccn1)C1CCC(F)(F)CC1` [Example 179, N-((S)-2-((4-((S)-1-(5,5-difluoro-2-oxotetrahydropyrimidin-1(2H)-yl)-2-methoxyethyl)pyridin-2-yl)amino)-1-(4,4-difluorocyclohexyl)-2-oxoethyl)-1-ethyl-1H-pyrazole-5-carboxamide] gave a 50% inhibitory concentration (IC50) of 83 nM. The same measure for `COC[C@H](c1ccnc(NC(=O)[C@@H](NC(=O)c2ccnn2C)C2CCC(F)(F)CC2)c1)N1CC(F)(F)CNC1=O` [Example 180, N-((S)-2-((4-((S)-1-(5,5-difluoro-2-oxotetrahydropyrimidin-1(2H)-yl)-2-methoxyethyl)pyridin-2-yl)amino)-1-(4,4-difluorocyclohexyl)-2-oxoethyl)-1-methyl-1H-pyrazole-5-carboxamide]: 73 nM. `COC[C@H](c1ccnc(NC(=O)[C@@H](NC(=O)c2ccnn2C(C)C)C2CCC(F)(F)CC2)c1)N1CC(F)(F)CNC1=O` [Example 181, N-((S)-2-((4-((S)-1-(5,5-difluoro-2-oxotetrahydropyrimidin-1(2H)-yl)-2-methoxyethyl)pyridin-2-yl)amino)-1-(4,4-difluorocyclohexyl)-2-oxoethyl)-1-isopropyl-1H-pyrazole-5-carboxamide]: the IC50 amounted to 102 nM. `CCc1nonc1C(=O)N[C@H](C(=O)Nc1cc([C@@H](COC)N2CC(F)(F)CNC2=O)ccn1)C1CCC(F)(F)CC1` [Example 182, N-((S)-2-((4-((S)-1-(5,5-difluoro-2-oxotetrahydropyrimidin-1(2H)-yl)-2-methoxyethyl)pyridin-2-yl)amino)-1-(4,4-difluorocyclohexyl)-2-oxoethyl)-4-ethyl-1,2,5-oxadiazole-3-carboxamide] yielded a 50% inhibitory concentration (IC50) of 19 nM. This IC50 lies about 5.4-fold lower than the previous one.

`CCc1nonc1C(=O)N[C@H](C(=O)Nc1cc([C@@H](COC)N2C[C@@H](C(F)(F)F)NC2=O)ccn1)C1CCC(F)(F)CC1` [Example 187, N—((S)-1-(4,4-Difluorocyclohexyl)-2-((4-((S)-2-methoxy-1-((S)-2-oxo-4-(trifluoromethyl)imidazolidin-1-yl)ethyl)pyridin-2-yl)amino)-2-oxoethyl)-4-ethyl-1,2,5-oxadiazole-3-carboxamide]: the IC50 came out at 17 nM. Consider `COC[C@H](c1ccnc(NC(=O)[C@@H](NC(=O)c2nocc2C(C)C)C2CCC(F)(F)CC2)c1)N1C[C@@H](C(F)(F)F)NC1=O` [Example 188, N-((S)-1-(4,4-difluorocyclohexyl)-2-((4-((S)-2-methoxy-1-((S)-2-oxo-4-(trifluoromethyl)imidazolidin-1-yl)ethyl)pyridin-2-yl)amino)-2-oxoethyl)-4-isopropylisoxazole-3-carboxamide], for which the half-inhibitory concentration (IC50) amounted to 31 nM.

In turn, `[2H]C([2H])([2H])C([2H])([2H])n1nccc1C(=O)N[C@H](C(=O)Nc1cc([C@@H](COC)N2C[C@@H](C(F)(F)F)NC2=O)ccn1)C1CCC(F)(F)CC1` [Example 189, N-((S)-1-(4,4-difluorocyclohexyl)-2-((4-((S)-2-methoxy-1-((S)-2-oxo-4-(trifluoromethyl)imidazolidin-1-yl)ethyl)pyridin-2-yl)amino)-2-oxoethyl)-1-(ethyl-d5)-1H-pyrazole-5-carboxamide] registered an IC50 of 65 nM. The same measure for `[2H]C([2H])([2H])C([2H])([2H])n1ccc(C(=O)N[C@H](C(=O)Nc2cc([C@@H](COC)N3C[C@@H](C(F)(F)F)NC3=O)ccn2)C2CCC(F)(F)CC2)n1` [Example 190, N-((S)-1-(4,4-difluorocyclohexyl)-2-((4-((S)-2-methoxy-1-((S)-2-oxo-4-(trifluoromethyl)imidazolidin-1-yl)ethyl)pyridin-2-yl)amino)-2-oxoethyl)-1-(ethyl-d5)-1H-pyrazole-3-carboxamide]: 816 nM; for `COC[C@H](c1ccnc(NC(=O)[C@@H](NC(=O)c2nocc2C2CCC2)C2CCC(F)(F)CC2)c1)N1C[C@@H](C(F)(F)F)NC1=O` [Example 191, 4-cyclobutyl-N-((S)-1-(4,4-difluorocyclohexyl)-2-((4-((S)-2-methoxy-1-((S)-2-oxo-4-(trifluoromethyl)imidazolidin-1-yl)ethyl)pyridin-2-yl)amino)-2-oxoethyl)isoxazole-3-carboxamide]: 31 nM. The compound `COC[C@H](c1ccnc(NC(=O)[C@@H](NC(=O)c2nocc2OCC(F)F)C2CCC(F)(F)CC2)c1)N1C[C@@H](C(F)(F)F)NC1=O` [Example 192, N-((S)-1-(4,4-difluorocyclohexyl)-2-((4-((S)-2-methoxy-1-((S)-2-oxo-4-(trifluoromethyl)imidazolidin-1-yl)ethyl)pyridin-2-yl)amino)-2-oxoethyl)-4-(2,2-difluoroethoxy)isoxazole-3-carboxamide] yielded a half-maximal inhibitory concentration (IC50) of 105 nM. Against the preceding compound, the IC50 is about 3.4-fold higher. The same measure for `COC[C@H](c1ccnc(NC(=O)[C@@H](NC(=O)c2nonc2OCC(F)(F)F)C2CCC(F)(F)CC2)c1)N1C[C@@H](C(F)(F)F)NC1=O` [Example 193, N-((S)-1-(4,4-difluorocyclohexyl)-2-((4-((S)-2-methoxy-1-((S)-2-oxo-4-(trifluoromethyl)imidazolidin-1-yl)ethyl)pyridin-2-yl)amino)-2-oxoethyl)-4-(2,2,2-trifluoroethoxy)-1,2,5-oxadiazole-3-carboxamide]: 105 nM; for `COC[C@H](c1ccnc(NC(=O)[C@@H](NC(=O)c2conc2C)C2CCC(F)(F)CC2)c1)N1C[C@@H](C(F)(F)F)NC1=O` [Example 194, N-((S)-1-(4,4-difluorocyclohexyl)-2-((4-((S)-2-methoxy-1-((S)-2-oxo-4-(trifluoromethyl)imidazolidin-1-yl)ethyl)pyridin-2-yl)amino)-2-oxoethyl)-3-methylisoxazole-4-carboxamide]: 68 nM.
